Reference: patent US11945822B2, “Pyrazolo-triazine and/or pyrazolo-pxrimidine derivatives as selective inhibitor of cyclin dependent kinase” (QURIENT CO., LTD., priority 2018, dated 2024)

Assays:
MOLT-4 = experiment: Cellular MOLT-4 viability assay (CellTiter-Glo, 72 hours); format: cell-based; details: Homo sapiens, MOLT4 viability assay
Summary of the method: (§1)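 Cells plated in 96 wells and exposed to compound 72 h at 37 °C, 5% CO2, final DMSO below 0.1%, DMSO control. Viability by CellTiter-Glo luminescence, duplicate.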

CDK7/Cyclin H/MNAT1 = target: T1, CDK7/Cyclin H/MNAT1 (Homo sapiens, UniProt P50613); experiment: Enzymatic assay for CDK7 (FRET based LANCE Ultra kinase assay); format: biochemical; details: for IC50: read-out: CDK7 enzymatic activity (IC50 range)
T1 construct: purchased Invitrogen PR6749B
T1 sequence (P50613 whole entry): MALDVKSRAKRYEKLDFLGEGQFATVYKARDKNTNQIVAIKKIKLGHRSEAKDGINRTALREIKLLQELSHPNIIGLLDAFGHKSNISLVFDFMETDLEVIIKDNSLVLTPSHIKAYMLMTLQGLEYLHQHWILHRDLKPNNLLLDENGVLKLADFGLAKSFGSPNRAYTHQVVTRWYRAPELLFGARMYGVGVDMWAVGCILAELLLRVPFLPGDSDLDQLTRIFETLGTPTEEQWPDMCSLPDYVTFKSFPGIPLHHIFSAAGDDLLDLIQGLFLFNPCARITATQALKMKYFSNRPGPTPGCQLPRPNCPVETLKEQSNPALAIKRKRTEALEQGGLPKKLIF
T1 sequence (P51946 whole entry partner): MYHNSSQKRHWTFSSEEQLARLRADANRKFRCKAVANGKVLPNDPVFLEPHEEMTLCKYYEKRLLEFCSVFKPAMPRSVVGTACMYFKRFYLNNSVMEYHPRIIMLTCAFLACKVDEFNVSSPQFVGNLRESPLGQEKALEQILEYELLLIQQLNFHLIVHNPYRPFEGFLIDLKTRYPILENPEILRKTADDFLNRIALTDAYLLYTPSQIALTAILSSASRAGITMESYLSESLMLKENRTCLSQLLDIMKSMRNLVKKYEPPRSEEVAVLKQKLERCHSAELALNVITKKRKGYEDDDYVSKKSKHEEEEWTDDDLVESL
T1 sequence (P51948 whole entry partner): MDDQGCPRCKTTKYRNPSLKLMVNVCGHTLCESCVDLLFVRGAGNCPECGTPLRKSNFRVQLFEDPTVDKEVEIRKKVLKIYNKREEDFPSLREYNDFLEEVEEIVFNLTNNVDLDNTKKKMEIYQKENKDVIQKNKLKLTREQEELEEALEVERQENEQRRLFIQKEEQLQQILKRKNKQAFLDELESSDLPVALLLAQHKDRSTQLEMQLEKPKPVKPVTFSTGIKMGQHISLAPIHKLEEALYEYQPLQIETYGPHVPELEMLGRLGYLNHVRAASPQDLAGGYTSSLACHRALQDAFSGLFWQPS
Summary of the method: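 LANCE Ultra TR-FRET kinase assay using a ULight-labeled peptide substrate and a Eu-labeled anti-phospho antibody, with ATP at its Km. Purified CDK/cyclin complex was added to compound after brief centrifugation.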

RPMI-8226 = experiment: Cellular RPMI-8226 viability assay (CellTiter-Glo, 72 hours); format: cell-based; details: Homo sapiens
Summary of the method: as §1

CDK1/Cyclin B = target: T2, CDK1/Cyclin B (Homo sapiens, UniProt P06493); experiment: Enzymatic assay for CDK1 (FRET based LANCE Ultra kinase assay); format: biochemical; details: read-out: CDK1 enzymatic activity (IC50 range)
T2 construct: purchased Invitrogen PR4768C
T2 sequence (P06493 whole entry): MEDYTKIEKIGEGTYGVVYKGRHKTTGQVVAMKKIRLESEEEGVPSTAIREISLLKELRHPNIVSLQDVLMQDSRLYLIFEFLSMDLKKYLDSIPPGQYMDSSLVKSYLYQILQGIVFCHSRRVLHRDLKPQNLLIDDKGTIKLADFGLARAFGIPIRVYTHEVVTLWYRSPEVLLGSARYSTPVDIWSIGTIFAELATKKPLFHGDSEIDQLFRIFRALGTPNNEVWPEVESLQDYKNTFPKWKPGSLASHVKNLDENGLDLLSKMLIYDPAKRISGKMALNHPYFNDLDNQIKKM
T2 sequence (P14635 whole entry partner): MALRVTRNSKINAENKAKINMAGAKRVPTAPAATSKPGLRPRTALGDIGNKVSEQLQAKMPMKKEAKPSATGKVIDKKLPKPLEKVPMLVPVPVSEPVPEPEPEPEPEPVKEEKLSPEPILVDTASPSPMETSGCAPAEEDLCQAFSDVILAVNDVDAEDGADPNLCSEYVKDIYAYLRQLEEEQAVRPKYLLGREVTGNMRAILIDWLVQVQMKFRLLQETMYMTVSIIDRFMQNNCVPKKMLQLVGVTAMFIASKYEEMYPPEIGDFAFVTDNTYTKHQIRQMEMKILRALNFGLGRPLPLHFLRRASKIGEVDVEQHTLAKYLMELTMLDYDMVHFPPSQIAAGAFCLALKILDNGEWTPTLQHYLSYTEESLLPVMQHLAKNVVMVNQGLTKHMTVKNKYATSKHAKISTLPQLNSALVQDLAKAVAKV
Summary of the method: (§2)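 TR-FRET (LANCE Ultra) kinase assay at ATP Km, ULight-MBP peptide substrate (68 nM), 8-dose 4-fold compound series in DMSO. Enzymes: […]; 60 min at 23° C., stopped with EDTA plus Eu-anti-phospho-MBP antibody, read 665/615 nm after 60 min.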

CDK5/p25 = target: T3, CDK5/p25 (Homo sapiens, UniProt Q00535); experiment: Enzymatic assay for CDK5 (FRET based LANCE Ultra kinase assay); format: biochemical; details: read-out: CDK5 enzymatic activity (IC50 range)
T3 construct: purchased Invitrogen PR8543B
T3 sequence (Q00535 whole entry): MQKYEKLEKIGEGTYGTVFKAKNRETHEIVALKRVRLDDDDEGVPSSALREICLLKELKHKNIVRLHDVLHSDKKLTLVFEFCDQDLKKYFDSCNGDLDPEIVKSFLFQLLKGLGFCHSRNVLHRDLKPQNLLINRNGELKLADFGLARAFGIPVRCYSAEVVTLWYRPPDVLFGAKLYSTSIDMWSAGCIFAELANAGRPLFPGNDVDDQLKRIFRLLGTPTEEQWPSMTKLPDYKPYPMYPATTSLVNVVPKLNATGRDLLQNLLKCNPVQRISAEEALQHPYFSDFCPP
T3 sequence (Q15078 99-307 partner limits assumed): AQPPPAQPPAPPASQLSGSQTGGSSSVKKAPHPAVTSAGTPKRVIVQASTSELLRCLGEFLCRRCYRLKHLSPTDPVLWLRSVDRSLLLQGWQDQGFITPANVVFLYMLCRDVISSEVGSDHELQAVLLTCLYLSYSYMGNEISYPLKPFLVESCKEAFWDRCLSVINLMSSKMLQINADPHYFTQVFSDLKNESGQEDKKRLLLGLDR
Summary of the method: as §2

MV4-11 = experiment: Cellular MV4-11 viability assay (CellTiter-Glo, 72 hours); format: cell-based; details: Homo sapiens
Summary of the method: as §1

CDK2/Cyclin A = target: T4, CDK2/Cyclin A (Homo sapiens, UniProt P24941); experiment: Enzymatic assay for CDK2 (FRET based LANCE Ultra kinase assay); format: biochemical; details: read-out: CDK2 enzymatic activity (IC50 range)
T4 construct: purchased Invitrogen PV6290
Summary of the method: as §2

H460 = experiment: Cellular H460 viability assay (CellTiter-Glo, 72 hours); format: cell-based; details: Homo sapiens, NCI-H460
Summary of the method: as §1

| IC50 (MOLT-4) [nM] | CDK1/CDK7: Selectivity of CDK7 inhibition over CDK1 inhibition (CDK7/Cyclin H/MNAT1) | IC50 (CDK7/Cyclin H/MNAT1) [nM] | IC50 (RPMI-8226) [nM] | IC50 (CDK1/Cyclin B) [nM] | IC50 (CDK5/p25) [nM] | IC50 (MV4-11) [nM] | IC50 (CDK2/Cyclin A) [nM] | IC50 (H460) [nM] | SMILES | CDK2/CDK7: Selectivity of CDK7 inhibition over CDK2 inhibition (CDK7/Cyclin H/MNAT1) | CDK5/CDK7: Selectivity of CDK7 inhibition over CDK5 inhibition (CDK7/Cyclin H/MNAT1) |
| --- | --- | --- | --- | --- | --- | --- | --- | --- | --- | --- | --- |
| 1000 to 10000 | A (A=greater than 200 fold) | < 100 | 1000 to 10000 | > 1000 | 100 to 1000 | < 1000 | > 1000 | < 1000 | CC(C)c1cnn2c(NCc3ccccc3-n3cccn3)nc(-c3ccc(Cl)c(C4CCNCC4)c3)nc12 [Compound 170] | B (B=less than 200 fold, but greater than 20 fold) | B (B=less than 200 fold, but greater than 20 fold) |
| < 1000 | – | – | < 1000 | – | – | < 1000 | – | < 1000 | CC(C)c1cnn2c(NCc3ccccc3-c3cc4cccc(F)c4[nH]3)nc(N3CCC(N)CC3)nc12 [Compound 113] | – | – |
| 1000 to 10000 | A (A=greater than 200 fold) | < 100 | 1000 to 10000 | > 1000 | 100 to 1000 | < 1000 | 100 to 1000 | – | CC(C)c1cnn2c(NCc3ccccc3-c3cc4ccccc4[nH]3)nc(OC3CCN(C)CC3)nc12 [Compound 115] | B (B=less than 200 fold, but greater than 20 fold) | B (B=less than 200 fold, but greater than 20 fold) |

The remaining lines, values behind:

| SMILES | IC50 (MOLT-4) [nM] | CDK1/CDK7: Selectivity of CDK7 inhibition over CDK1 inhibition (CDK7/Cyclin H/MNAT1) | IC50 (CDK7/Cyclin H/MNAT1) [nM] | IC50 (RPMI-8226) [nM] | IC50 (CDK1/Cyclin B) [nM] | IC50 (CDK5/p25) [nM] | IC50 (MV4-11) [nM] | IC50 (CDK2/Cyclin A) [nM] | IC50 (H460) [nM] | CDK2/CDK7: Selectivity of CDK7 inhibition over CDK2 inhibition (CDK7/Cyclin H/MNAT1) | CDK5/CDK7: Selectivity of CDK7 inhibition over CDK5 inhibition (CDK7/Cyclin H/MNAT1) |
| --- | --- | --- | --- | --- | --- | --- | --- | --- | --- | --- | --- |
| CC(C)c1cnn2c(NCc3ccccc3-c3nccc4cc(NC(=O)CCCN(C)C)ccc34)nc(N3CCC(N)CC3)nc12 [Compound 92] | > 10000 | A (A=greater than 200 fold) | < 100 | 1000 to 10000 | > 1000 | > 1000 | < 1000 | > 1000 | – | A (A=greater than 200 fold) | A (A=greater than 200 fold) |
| CCCc1ccc2nn(-c3ccccc3CNc3nc(N4CCC(N)CC4)nc4c(C(C)C)cnn34)cc2c1 [Compound 106] | 1000 to 10000 | A (A=greater than 200 fold) | < 100 | < 1000 | > 1000 | 100 to 1000 | < 1000 | 100 to 1000 | < 1000 | B (B=less than 200 fold, but greater than 20 fold) | B (B=less than 200 fold, but greater than 20 fold) |
| CC(C)c1cnn2c(NCc3cccc4ccc(C5CC5)nc34)nc(N3CCC(N)CC3)nc12 [Compound 71] | 1000 to 10000 | B (B=less than 200 fold, but greater than 20 fold) | < 100 | 1000 to 10000 | > 1000 | 100 to 1000 | 1000 to 10000 | > 1000 | 1000 to 10000 | B (B=less than 200 fold, but greater than 20 fold) | B (B=less than 200 fold, but greater than 20 fold) |
| CC(C)c1cnn2c(NCc3ccccc3-c3cc4ccccc4cn3)nc(N3CCC(N)CC3)nc12 [Compound 78] | 1000 to 10000 | A (A=greater than 200 fold) | < 100 | < 1000 | 100 to 1000 | < 100 | < 1000 | 100 to 1000 | < 1000 | B (B=less than 200 fold, but greater than 20 fold) | B (B=less than 200 fold, but greater than 20 fold) |
| CC(C)c1cnn2c(NCc3ccccc3-c3cn4ccccc4n3)nc(N3CCC(N)CC3)nc12 [Compound 110] | < 1000 | B (B=less than 200 fold, but greater than 20 fold) | < 100 | < 1000 | 100 to 1000 | < 100 | < 1000 | < 100 | < 1000 | B (B=less than 200 fold, but greater than 20 fold) | C (C=less than 20 fold) |
| CC(C)Oc1ccc2cn(-c3ccccc3CNc3nc(N4CCC(N)CC4)nc4c(C(C)C)cnn34)nc2c1 [Compound 107] | 1000 to 10000 | A (A=greater than 200 fold) | < 100 | < 1000 | > 1000 | 100 to 1000 | < 1000 | 100 to 1000 | < 1000 | A (A=greater than 200 fold) | B (B=less than 200 fold, but greater than 20 fold) |
| CC(C)c1cnn2c(NCc3ccccc3Oc3ccccc3)nc(N3CCC(N)CC3)nc12 [Compound 56] | 1000 to 10000 | B (B=less than 200 fold, but greater than 20 fold) | < 100 | 1000 to 10000 | > 1000 | 100 to 1000 | – | > 1000 | < 1000 | B (B=less than 200 fold, but greater than 20 fold) | C (C=less than 20 fold) |
| CC(C)c1cnn2c(NCc3ccccc3-n3cc4cc(Cl)ccc4n3)nc(N3CCC(N)CC3)nc12 [Compound 103] | 1000 to 10000 | A (A=greater than 200 fold) | < 100 | < 1000 | > 1000 | 100 to 1000 | < 1000 | 100 to 1000 | < 1000 | B (B=less than 200 fold, but greater than 20 fold) | B (B=less than 200 fold, but greater than 20 fold) |
| CC(C)c1cnn2c(NCc3ccccc3-c3nc4ccccc4n3C)nc(N3CCC(N)CC3)nc12 [Compound 96] | 1000 to 10000 | A (A=greater than 200 fold) | < 100 | < 1000 | > 1000 | 100 to 1000 | – | > 1000 | < 1000 | A (A=greater than 200 fold) | B (B=less than 200 fold, but greater than 20 fold) |
| CC(C)c1cnn2c(NCc3ccccc3N(C)c3ccccc3)nc(N3CCC(N)CC3)nc12 [Compound 63] | > 10000 | B (B=less than 200 fold, but greater than 20 fold) | < 100 | 1000 to 10000 | 100 to 1000 | 100 to 1000 | – | 100 to 1000 | < 1000 | B (B=less than 200 fold, but greater than 20 fold) | B (B=less than 200 fold, but greater than 20 fold) |
